# “And” between values parts separate entries of the source, which are not always exact repeats. Equal values may be shown once. Read-outs that look alike come from different tables or passages of the source.
# What was measured:
# [1] = test system: Cryptococcus neoformans H99 ATCC 208821; experiment: Minimum inhibitory concentration (MIC) test against fungi; format: cell-based; conditions: ≥50% growth inhibition by eye, three independent experiments
# Description: (§1) To test the minimum inhibitory concentration (MIC) and minimum effective concentration (MEC) of the drug against fungi.
# Cryptococcus neoformans H99 ATCC 208821;
# (§2) Test medium: RPMI1640 (containing 0.165 M MOPS, pH7.0)
# (§3) On the day of the experiment, the compound in the bottle was dissolved in 100% DMSO to a stock solution concentration of 6.24 mg/mL. Then, the mixture was 10-fold diluted with DMSO to 0.624 mg/mL for use.
# (§4) A 2-fold gradient dilution of the compound solution (0.624 mg/mL) was performed using DMSO on a 96-microwell plate (V-bottom) to obtain 100× working solutions (wells 1 to 11). 624, 312, 156, 78, 39, 20, 10, 5, 2.5, 1.25, 0.625 μg/mL. 100% DMSO was used as a positive control (well 12). This was the compound stock plate.
# Cryptococcus neoformans H99 ATCC 208821 frozen at −80° C. was streaked on SDA plates and incubated aerobically in a 35±2° C. incubator for 48 hours.
# (§5) On the day of the experiment, for strains Candida parapsilosis ATCC 22019, Candida albicans ATCC MYA-2876; Candida albicans WX-CA009; Candida glabrata ATCC15126; Candida tropicalis ATCC 750 and Cryptococcus neoformans H99 ATCC 208821, the plates were taken out and the clones on the plates were picked, suspended in normal saline, and then the turbidity of the fungal suspension was adjusted to OD600=0.2 using a turbidimeter. The fungal suspension contained about 3.0×10^6 CFU/mL. Then the turbidity-adjusted fungal suspension was diluted with a test medium to a concentration of about 3.0×10^3 CFU/mL. This was the inoculum.
# (§6) 2 μL of 100× working solution from the compound stock plate (prepared in 3.1) was transferred to a round-bottomed 96-well plate (containing 98 μL of test medium), and then 100 μL of fungus inoculum (prepared in 3.2) was added to each well to obtain a MIC test plate. Therefore, the final test concentrations of the compounds were 6.24, 3.12, 1.56, 0.78, 0.39, 0.20, 0.10, 0.05, 0.025, 0.0125, 0.006 μg/mL. 1% DMSO was used as a growth control.
# For Cryptococcus neoformans H99 ATCC 208821, all test plates were incubated aerobically in a 35±2° C. incubator for 72 hours.
# (§7) After incubation, according to the criteria in Table 1 below, the test plate was observed by eye or microscope to determine the MIC (g/mL) and MEC (g/mL) of the test compound against yeast and mold.
# [2] = test system: Candida albicans WX-CA009; experiment: as above; format: cell-based; conditions: ≥50% growth inhibition by eye, three independent experiments
# Description: as §1
# (§8) Experimental strains: Candida parapsilosis ATCC 22019; Candida albicans ATCC MYA-2876; Candida albicans WX-CA009; Candida glabrata ATCC15126; Candida tropicalis ATCC 750;
# as §2, §3, §4
# (§9) Candida parapsilosis ATCC 22019 and Candida albicans ATCC MYA-2876; Candida albicans WX-CA009; Candida glabrata ATCC15126; Candida tropicalis ATCC 750 frozen at −80° C. were streaked on SDA plates and incubated aerobically in a 35±2° C. incubator for 24 hours.
# as §5, §6
# (§10) For strains Candida parapsilosis ATCC 22019; Candida albicans ATCC MYA-2876; Candida albicans WX-CA009; Candida glabrata ATCC15126; Candida tropicalis ATCC 750, all test plates were incubated aerobically in a 35±2° C. incubator for 24 hours.
# as §7
# [3] = test system: Candida albicans ATCC MYA-2876; experiment: as above; format: cell-based; conditions: ≥50% growth inhibition by eye, three independent experiments
# Description: as §1, §8, §2, §3, §4, §9, §5, §6, §10, §7
# [4] = test system: Candida parapsilosis ATCC 22019; experiment: as above; format: cell-based; conditions: ≥50% growth inhibition by eye, three independent experiments (1st, 2nd, 3rd time)
# Description: as §1, §8, §2, §3, §4, §9, §5, §6, §10, §7
# [5] = test system: Candida glabrata ATCC15126; experiment: as above; format: cell-based; conditions: ≥50% growth inhibition by eye, three independent experiments
# Description: as §1, §8, §2, §3, §4, §9, §5, §6, §10, §7
# [6] = test system: Aspergillus flavus ATCC MYA-1004; experiment: Minimum effective concentration (MEC) test against fungi; format: cell-based; conditions: change of hyphae morphology by microscope, 48 hours, three independent experiments
# Description: as §1
# (§11) Aspergillus fumigatus ATCC-MYA-4609; Aspergillus flavus ATCC MYA-1004
# as §2, §3, §4
# (§12) Aspergillus fumigatus ATCC-MYA-4609; Aspergillus flavus ATCC MYA-1004 frozen at −80° C. were streaked on SDA plates and incubated aerobically in a 30±2° C. incubator for 6 days.
# (§13) For strains Aspergillus fumigatus ATCC MYA-4609; Aspergillus flavus ATCC MYA-1004, after taking out the plate, 3 mL of 0.9% normal saline containing 0.1% Tween20 was added to the plate and the spores were gently collected. The spores were counted with a hemocytometer and the spore suspension was adjusted to about 5×10^6 spores/mL. Then the spore suspension was diluted to 0.8 to 1×10^5 spores/mL with a test medium.
# as §6
# (§14) For mold strains Aspergillus fumigatus ATCC-MYA-4609 and Aspergillus flavus ATCC MYA-1004, all test plates were incubated aerobically in a 35±° C. incubator for 48 hours.
# as §7
# [7] = test system: Aspergillus fumigatus ATCC-MYA-4609; experiment: as above; format: cell-based; conditions: change of hyphae morphology by microscope, 48 hours, three independent experiments
# Description: as §1, §11, §2, §3, §4, §12, §13, §6, §14, §7
# [8] = Mouse pharmacokinetic evaluation, intraperitoneal injection after oral ABT; format: in vivo; conditions: ip, female CD-1 mice, ABT 50 mg/kg orally 2 hours before, plasma; for AUC: read-out: Concentration Integral AUC; for Cmax: read-out: Peak Concentration Cmax; for Tmax: read-out: Peak Time Tmax
# From the text: Experimental Purpose: Using female CD-1 mice as test animals, LC/MS/MS was used to measure the plasma drug concentration at different times after intraperitoneal injection of the test compound. To study the pharmacokinetic behavior of the test compound in mice and evaluate its pharmacokinetic characteristics. Drug preparation: An appropriate amount of sample was weighed and then prepared into a clear or suspended solution. Administration scheme: Two healthy female CD-1 mice were taken, purchased from Beijing Vital River Laboratory Animal Technology Co., Ltd., and given a normal diet. The drug was administered through intraperitoneal injection. Operational steps: 2 hours before administration, 1-aminobenzotriazole (ABT) was orally administered (50 mg/kg, 5 mg/mL in normal saline), and after animal administration, about 30 μL of blood was collected at 0.083, 0.25, 0.5, 1, 2, 4, 8, and 24 hours, and placed in commercially available anticoagulant tubes pre-added with EDTA-K2. The tubes were centrifuged for 10 minutes to separate the plasma, and the plasma was stored at −60° C. The content of the target compound in the plasma sample was determined by LC/MS/MS method, and the experimental results are shown in Table 3.
# [9] = test system: Candida tropicalis ATCC 750; experiment: Minimum inhibitory concentration (MIC) test against fungi; format: cell-based; conditions: Candida tropicalis, ATCC750, 24 h, ≥50% growth inhibition by eye, three independent experiments, read-out: MIC
# Description: as §1, §8, §2, §3, §4, §9, §5, §6, §10, §7
# [10] = Cryptococcus neoformans, ATCC208821, 72 h, read-out: MIC
# [11] = Candida albicans, WXCA009, 24 h, read-out: MIC
# [12] = Candida albicans, 24 h, read-out: MIC
# [13] = Lodderomyces parapsilosis, ATCC22019, 24 h, read-out: MIC
# [14] = Nakaseomyces glabratus, ATCC15126, 24 h, read-out: MIC
"MIC [1, 10] [µg/mL]",MIC ([1]; 72 hours) [µg/mL],"MIC [2, 11] [µg/mL]",MIC ([2]; 24 hours) [µg/mL],"MIC [3, 12] [µg/mL]",MIC ([3]; 24 hours) [µg/mL],"MIC [4, 13] [µg/mL]",MIC ([4]; 24 hours) [µg/mL],"MIC [5, 14] [µg/mL]",AUC ([8]; 6 mpk) [µM·h],Cmax ([8]; 6 mpk) [µM],Tmax ([8]; 6 mpk) [h],MIC [9] [µg/mL],AUC ([8]; 26 mpk) [µM·h],Cmax ([8]; 26 mpk) [µM],Tmax ([8]; 26 mpk) [h],MIC ([5]; 24 hours) [µg/mL],Structure (SMILES),MEC [6],MEC [7]
> 6.24,6.24,0.1,0.05,0.05,0.1,0.2,0.1,1.56,–,–,–,–,–,–,–,–,Nc1ccc(C#CCc2ccc(COc3ccccn3)cc2)c(F)n1 [WX005],3.12 µg/mL,0.39 µg/mL and 0.2 µg/mL
3.12,–,0.05,–,0.05,–,0.05,–,0.78,75,4.7,4.3,0.05,–,–,–,–,Nc1ncc(C#CCc2ccc(COc3ccccn3)cc2)cc1F [WX008],0.39 µg/mL,1.56 µg/mL
0.39,–,0.0125,0.025,–,–,0.025,–,0.39,–,–,–,0.0125,27,13.5,0.5,0.78,Nc1ncccc1C#CCc1ccc(COc2ccccn2)cc1 [WX003],0.2 µg/mL and 0.39 µg/mL,0.1 µg/mL and 0.2 µg/mL
